Holding throughout (type): cell-based
One assay concerns the target T1, ER-α (Rattus norvegicus, UniProt P06211).
T1 sequence (P06211 1-600): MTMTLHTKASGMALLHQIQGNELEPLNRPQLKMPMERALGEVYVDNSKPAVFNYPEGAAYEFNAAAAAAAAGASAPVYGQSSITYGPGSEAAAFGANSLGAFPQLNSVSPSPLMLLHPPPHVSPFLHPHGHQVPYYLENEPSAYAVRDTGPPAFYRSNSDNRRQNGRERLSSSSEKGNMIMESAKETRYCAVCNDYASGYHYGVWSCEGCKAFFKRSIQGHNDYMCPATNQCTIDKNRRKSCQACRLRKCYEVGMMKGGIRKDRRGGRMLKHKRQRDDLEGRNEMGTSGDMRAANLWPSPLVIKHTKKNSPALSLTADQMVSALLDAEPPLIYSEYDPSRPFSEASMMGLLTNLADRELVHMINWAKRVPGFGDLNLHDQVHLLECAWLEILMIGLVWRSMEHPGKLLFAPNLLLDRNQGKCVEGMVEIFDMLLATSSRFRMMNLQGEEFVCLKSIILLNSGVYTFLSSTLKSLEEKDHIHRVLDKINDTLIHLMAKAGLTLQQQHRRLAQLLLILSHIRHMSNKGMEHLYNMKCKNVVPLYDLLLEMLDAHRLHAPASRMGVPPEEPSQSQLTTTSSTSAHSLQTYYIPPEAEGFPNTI
The assay can be described thus: ER-α transactivation, ERE-LUC in COS or 293 cells. On the set-up: % estardiol activity, ER-α: dose or concentration left out as unconfirmed. Particulars: for inhibition of estradiol (E2) induced ER-α activity (luciferase expression): with estrogen.

Assay [1] deals with pS2 (gene encoding the trefoil peptides) in MCF-7 cells. The assay can be described thus: pS2 gene expression in MCF-7 cells (realtime RT-PCR). As to the method:
MCF-7 cells were plated at 500,000 cells per well of a 6 well plate. RNA was isolated and the message levels of pS2 (gene encoding the trefoil peptides) measured and normalized to 18S ribosomal RNA by realtime polymerase chain reaction (rtPCR).
FIG. 11: Agonistic activity of the indicated compounds in MCF-7 cells. MCF-7 cells were plated at 500,000 cells per well of a 6 well plate. RNA was isolated and the message levels of pS2 gene measured and normalized to 18S ribosomal RNA by realtime rtPCR.
MCF-7 cells were plated at 500,000 cells per well of a 6 well plate. The cells were serum starved for 3 days and then were treated as above for 16 hrs. RNA was isolated and gene expression levels assessed by realtime RT-PCR, following normalization to 18S ribosomal RNA.

For the next assay, the target named is T2, AR (Rattus norvegicus, UniProt P15207).
T2 construct: expressed in transfected cells; host or cells: COS cells
T2 sequence (P15207 1-902): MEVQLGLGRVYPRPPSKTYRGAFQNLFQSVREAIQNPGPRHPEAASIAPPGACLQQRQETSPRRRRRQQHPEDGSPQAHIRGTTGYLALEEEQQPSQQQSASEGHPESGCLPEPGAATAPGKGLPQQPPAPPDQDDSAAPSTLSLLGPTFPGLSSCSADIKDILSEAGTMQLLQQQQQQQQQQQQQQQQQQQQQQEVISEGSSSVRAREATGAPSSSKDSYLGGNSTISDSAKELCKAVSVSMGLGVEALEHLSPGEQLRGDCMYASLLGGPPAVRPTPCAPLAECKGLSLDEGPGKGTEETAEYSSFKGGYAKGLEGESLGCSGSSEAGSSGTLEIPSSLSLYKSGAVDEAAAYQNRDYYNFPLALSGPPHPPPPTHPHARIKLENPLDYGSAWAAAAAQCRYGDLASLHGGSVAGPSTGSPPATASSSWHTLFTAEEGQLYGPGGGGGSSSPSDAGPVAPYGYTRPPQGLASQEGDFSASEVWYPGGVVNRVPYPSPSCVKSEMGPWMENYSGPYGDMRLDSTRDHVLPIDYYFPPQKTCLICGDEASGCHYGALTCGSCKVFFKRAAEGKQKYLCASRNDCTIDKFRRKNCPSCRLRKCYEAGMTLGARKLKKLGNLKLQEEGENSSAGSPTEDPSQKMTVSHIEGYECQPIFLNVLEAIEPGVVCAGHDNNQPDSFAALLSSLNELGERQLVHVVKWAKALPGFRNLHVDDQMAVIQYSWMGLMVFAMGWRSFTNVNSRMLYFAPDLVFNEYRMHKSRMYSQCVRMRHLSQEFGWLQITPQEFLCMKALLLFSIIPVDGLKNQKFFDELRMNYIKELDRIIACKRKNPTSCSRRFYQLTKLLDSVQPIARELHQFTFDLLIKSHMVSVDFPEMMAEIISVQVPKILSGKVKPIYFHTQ
The assay can be described thus: AR transactivation, ARE-LUC in COS cells. As to the method:
FIG. 3: Effect of the indicated compounds on AR transactivation. COS cells plated in DME without phenol red+10% csFBS at 90,000 cells per well of a 24 well plate were transfected with 0.25 μg ARE-LUC, 0.02 μg CMV-LUC (Renilla) and 12.5 ng of AR by lipofectamine. Twenty four hours after transfection, the cells were treated as indicated in the figure, harvested 48 hrs after transfection and were assayed for firefly and renilla luciferase.
Also 25 ng of ER-α (FIGS. 1, 5, and 9), 50 ng of ER-β (FIGS. 2, 6 and 10) or 12.5 ng of AR (FIG. 3) were introduced by lipofectamine. All the receptors were cloned from rat tissue into the PCR3.1 vector backbone. […] Cells were harvested 48 hrs after transfection, and assayed for firefly and Renilla luciferase activity.

Entries after “also recorded” stand apart in the source; their conditions may differ.

In the case of `O=C(c1ccccc1)N(c1ccc(O)cc1)c1ccc(OCCN2CCCCC2)cc1` [Compound 4a, N-(4-hydroxyphenyl)-N-[4-(2-piperidin-1-ylethoxy)-phenyl]-benzamide], the “% estardiol activity, ER-α” value on ER-α amounted to 29.9%. Moreover, on ER-α (COS or 293 cells), the “ER-α activity (luciferase expression), compound alone” value was “no effect on ER-α activity; also recorded: neither SERM alone showed any such effect” and the “inhibition of estradiol (E2) induced ER-α activity (luciferase expression)” value is “inhibited the estradiol (E2) induced ER-α activity to basal levels; also recorded: inhibited estrogen stimulated luciferase expression”. Further, half-maximal inhibition on ER-α (ER alpha antagonists) (IC50) was put at 35 nM. Further, the pS2 expression result in assay [1] (16 hrs) is “only minimally did so; also recorded: partial agonist of ER action in MCF-7 cells”. Besides, the “inhibition of estrogen-induced upregulation of pS2 gene expression” value in assay [1] (with estrogen) is “inhibited estrogen-induced upregulation of pS2 gene expression”. Moreover, the “AR LUC expression, compound alone” value at AR is “no effect on LUC expression”. On AR (with DHT), the “inhibition of DHT-induced AR activation” value is given as “nor did it inhibit DHT-induced AR activation”.
`Cl.O=C(c1ccc(F)cc1)N(c1ccc(O)cc1)c1ccc(OCCN2CCCCC2)cc1` [Compound 4h, N-(4-hydroxyphenyl)-N-[4-(2-piperidin-1-ylethoxy)-phenyl]-4-fluroro-benzamide hydrochloride]: on ER-α, the “% estardiol activity, ER-α” value is recorded as 17.4%. For the same molecule, the “inhibition of estradiol (E2) induced ER-α activity (luciferase expression)” value against ER-α (COS or 293 cells) is on record as “inhibited estrogen stimulated luciferase expression”.
